# Reference: ChEMBL document CHEMBL3112480, “γ-Alkylidene-γ-lactones and isobutylpyrrol-2(5H)-ones analogues to rubrolides as inhibitors of biofilm formation by gram-positive and gram-negative bacteria” (Bioorg Med Chem Lett, 2014)
# Tests used:
# [1] = system: Staphylococcus epidermidis; test: Antibacterial activity against Staphylococcus epidermidis ATCC 35547 assessed as effect on planktonic growth at 21.9 ug/ml after 20 hrs relative to control; type: functional
# Streptococcus mutans [2] = test: Antibacterial activity against Streptococcus mutans ATCC 25175 assessed as effect on planktonic growth at 87.5 ug/ml after 20 hrs relative to control; type: functional
# Staphylococcus aureus [3] = test: Antibacterial activity against Staphylococcus aureus ATCC 25923 assessed as effect on planktonic growth at 5.5 ug/ml after 20 hrs relative to control; type: functional
# Staphylococcus aureus [4] = test: Antibacterial activity against Staphylococcus aureus ATCC 25923 assessed as effect on planktonic growth at 0.17 ug/ml after 20 hrs relative to control; type: functional
# Staphylococcus aureus [5] = test: Antibacterial activity against Staphylococcus aureus ATCC 25923 assessed as effect on planktonic growth at 0.68 ug/ml after 20 hrs relative to control; type: functional
# [6] = system: Staphylococcus epidermidis; test: Antibacterial activity against Staphylococcus epidermidis ATCC 35547 assessed as effect on planktonic growth at 5.5 ug/ml after 20 hrs relative to control; type: functional
# Streptococcus mutans [7] = test: Antibacterial activity against Streptococcus mutans ATCC 25175 assessed as effect on planktonic growth at 2.73 ug/ml after 20 hrs relative to control; type: functional
# Staphylococcus aureus [8] = test: Antibacterial activity against Staphylococcus aureus ATCC 25923 assessed as effect on planktonic growth at 21.9 ug/ml after 20 hrs relative to control; type: functional
# Pseudomonas aeruginosa [9] = test: Antibacterial activity against Pseudomonas aeruginosa ATCC 27853 assessed as effect on planktonic growth at 2.73 ug/ml after 20 hrs relative to control; type: functional
# Pseudomonas aeruginosa [10] = test: Antibacterial activity against Pseudomonas aeruginosa ATCC 27853 assessed as effect on planktonic growth at 21.9 ug/ml after 20 hrs relative to control; type: functional
# Pseudomonas aeruginosa [11] = test: Antibacterial activity against Pseudomonas aeruginosa ATCC 27853 assessed as effect on planktonic growth at 0.68 ug/ml after 20 hrs relative to control; type: functional
# [12] = system: Staphylococcus epidermidis; test: Antibacterial activity against Staphylococcus epidermidis ATCC 35547 assessed as effect on planktonic growth at 0.17 ug/ml after 20 hrs relative to control; type: functional
# [13] = system: Staphylococcus epidermidis; test: Antibacterial activity against Staphylococcus epidermidis ATCC 35547 assessed as effect on planktonic growth at 10.9 ug/ml after 20 hrs relative to control; type: functional
# [14] = system: Staphylococcus epidermidis; test: Antibacterial activity against Staphylococcus epidermidis ATCC 35547 assessed as effect on planktonic growth at 1.37 ug/ml after 20 hrs relative to control; type: functional
# [15] = system: Staphylococcus epidermidis; test: Antibacterial activity against Staphylococcus epidermidis ATCC 35547 assessed as effect on planktonic growth at 43.8 ug/ml after 20 hrs relative to control; type: functional
# Pseudomonas aeruginosa [16] = test: Antibacterial activity against Pseudomonas aeruginosa ATCC 27853 assessed as effect on planktonic growth at 5.5 ug/ml after 20 hrs relative to control; type: functional
# [17] = system: Staphylococcus epidermidis; test: Antibacterial activity against Staphylococcus epidermidis ATCC 35547 assessed as effect on planktonic growth at 87.5 ug/ml after 20 hrs relative to control; type: functional
# Streptococcus mutans [18] = test: Antibacterial activity against Streptococcus mutans ATCC 25175 assessed as effect on planktonic growth at 0.68 ug/ml after 20 hrs relative to control; type: functional
# [19] = system: Staphylococcus epidermidis; test: Antibacterial activity against Staphylococcus epidermidis ATCC 35547 assessed as effect on planktonic growth at 0.34 ug/ml after 20 hrs relative to control; type: functional
# Staphylococcus aureus [20] = test: Antibacterial activity against Staphylococcus aureus ATCC 25923 assessed as effect on planktonic growth at 10.9 ug/ml after 20 hrs relative to control; type: functional
# Streptococcus mutans [21] = test: Antibacterial activity against Streptococcus mutans ATCC 25175 assessed as effect on planktonic growth at 0.17 ug/ml after 20 hrs relative to control; type: functional
# [22] = system: Staphylococcus epidermidis; test: Antibacterial activity against Staphylococcus epidermidis ATCC 35547 assessed as inhibition of biofilm formation after 20 hrs by crystal-violet staining method; type: functional, organism-based; conditions: for IC50: ATCC 35547, 20 h
# Streptococcus mutans [23] = test: Antibacterial activity against Streptococcus mutans ATCC 25175 assessed as effect on planktonic growth at 10.9 ug/ml after 20 hrs relative to control; type: functional
# Staphylococcus aureus [24] = test: Antibacterial activity against Staphylococcus aureus ATCC 25923 assessed as effect on planktonic growth at 43.8 ug/ml after 20 hrs relative to control; type: functional
# [25] = system: Staphylococcus epidermidis; test: Antibacterial activity against Staphylococcus epidermidis ATCC 35547 assessed as effect on planktonic growth at 2.73 ug/ml after 20 hrs relative to control; type: functional
# Streptococcus mutans [26] = test: Antibacterial activity against Streptococcus mutans ATCC 25175 assessed as effect on planktonic growth at 0.34 ug/ml after 20 hrs relative to control; type: functional
# Pseudomonas aeruginosa [27] = test: Antibacterial activity against Pseudomonas aeruginosa ATCC 27853 assessed as effect on planktonic growth at 1.37 ug/ml after 20 hrs relative to control; type: functional
# Streptococcus mutans [28] = test: Antibacterial activity against Streptococcus mutans ATCC 25175 assessed as effect on planktonic growth at 21.9 ug/ml after 20 hrs relative to control; type: functional
# Streptococcus mutans [29] = test: Antibacterial activity against Streptococcus mutans ATCC 25175 assessed as effect on planktonic growth at 43.8 ug/ml after 20 hrs relative to control; type: functional
# Pseudomonas aeruginosa [30] = test: Antibacterial activity against Pseudomonas aeruginosa ATCC 27853 assessed as inhibition of biofilm formation after 20 hrs by crystal-violet staining method; type: functional, organism-based; conditions: for IC50: ATCC 27853, 20 h
# Pseudomonas aeruginosa [31] = test: Antibacterial activity against Pseudomonas aeruginosa ATCC 27853 assessed as effect on planktonic growth at 10.9 ug/ml after 20 hrs relative to control; type: functional
# Staphylococcus aureus [32] = test: Antibacterial activity against Staphylococcus aureus ATCC 25923 assessed as effect on planktonic growth at 2.73 ug/ml after 20 hrs relative to control; type: functional
# Staphylococcus aureus [33] = test: Antibacterial activity against Staphylococcus aureus ATCC 25923 assessed as effect on planktonic growth at 0.34 ug/ml after 20 hrs relative to control; type: functional
# Staphylococcus aureus [34] = test: Antibacterial activity against Staphylococcus aureus ATCC 25923 assessed as effect on planktonic growth at 87.5 ug/ml after 20 hrs relative to control; type: functional
# Staphylococcus aureus [35] = test: Antibacterial activity against Staphylococcus aureus ATCC 25923 assessed as effect on planktonic growth at 1.37 ug/ml after 20 hrs relative to control; type: functional
# Pseudomonas aeruginosa [36] = test: Antibacterial activity against Pseudomonas aeruginosa ATCC 27853 assessed as effect on planktonic growth at 87.5 ug/ml after 20 hrs relative to control; type: functional
# Pseudomonas aeruginosa [37] = test: Antibacterial activity against Pseudomonas aeruginosa ATCC 27853 assessed as effect on planktonic growth at 0.34 ug/ml after 20 hrs relative to control; type: functional
# Pseudomonas aeruginosa [38] = test: Antibacterial activity against Pseudomonas aeruginosa ATCC 27853 assessed as effect on planktonic growth at 0.17 ug/ml after 20 hrs relative to control; type: functional
# [39] = system: Staphylococcus epidermidis; test: Antibacterial activity against Staphylococcus epidermidis ATCC 35547 assessed as effect on planktonic growth at 0.68 ug/ml after 20 hrs relative to control; type: functional
# Pseudomonas aeruginosa [40] = test: Antibacterial activity against Pseudomonas aeruginosa ATCC 27853 assessed as effect on planktonic growth at 43.8 ug/ml after 20 hrs relative to control; type: functional
# Streptococcus mutans [41] = test: Antibacterial activity against Streptococcus mutans ATCC 25175 assessed as effect on planktonic growth at 5.5 ug/ml after 20 hrs relative to control; type: functional
# Streptococcus mutans [42] = test: Antibacterial activity against Streptococcus mutans ATCC 25175 assessed as effect on planktonic growth at 1.37 ug/ml after 20 hrs relative to control; type: functional
structure (smiles),measurement,setting,value
COc1ccc(Cl)cc1C1=C(Br)C(=O)O/C1=C\c1ccccc1Br,Activity,[1],27.3%
same,Activity,Streptococcus mutans [2],57.5%
same,Activity,Staphylococcus aureus [3],-16.7%
same,Activity,Staphylococcus aureus [4],-7.9%
same,Activity,Staphylococcus aureus [5],-10.6%
same,Activity,[6],3.9%
same,Activity,Streptococcus mutans [7],4.1%
same,Activity,Staphylococcus aureus [8],-8.3%
same,Activity,Pseudomonas aeruginosa [9],-7.7%
same,Activity,Pseudomonas aeruginosa [10],-13.4%
same,Activity,Pseudomonas aeruginosa [11],-5.1%
same,Activity,[12],9.5%
same,Activity,[13],12.1%
same,Activity,[14],2.5%
same,Activity,[15],42.5%
same,Activity,Pseudomonas aeruginosa [16],-8.1%
same,Activity,[17],74.6%
same,Activity,Streptococcus mutans [18],5.6%
same,Activity,[19],51.8%
same,Activity,Staphylococcus aureus [20],-16.9%
same,Activity,Streptococcus mutans [21],19%
same,inhibition,[22],Dose-dependent effect
same,IC50,[22],48 µg/mL
same,Activity,Streptococcus mutans [23],8.2%
same,Activity,Staphylococcus aureus [24],-2.9%
same,Activity,[25],2.9%
same,Activity,Streptococcus mutans [26],5.6%
same,Activity,Pseudomonas aeruginosa [27],-7%
same,Activity,Streptococcus mutans [28],22.8%
same,Activity,Streptococcus mutans [29],26.9%
same,inhibition,Pseudomonas aeruginosa [30],Dose-dependent effect
same,IC50,Pseudomonas aeruginosa [30],3.9 µg/mL
same,Activity,Pseudomonas aeruginosa [31],-5.2%
same,Activity,Staphylococcus aureus [32],-14.4%
same,Activity,Staphylococcus aureus [33],-10%
same,Activity,Staphylococcus aureus [34],14.6%
same,Activity,Staphylococcus aureus [35],-14%
same,Activity,Pseudomonas aeruginosa [36],-8.2%
same,Activity,Pseudomonas aeruginosa [37],-5.3%
same,Activity,Pseudomonas aeruginosa [38],-3.8%
same,Activity,[39],11.1%
same,Activity,Pseudomonas aeruginosa [40],-9.1%
same,Activity,Streptococcus mutans [41],8.6%
same,Activity,Streptococcus mutans [42],4.5%
COc1ccc(C)cc1C1=C(Br)C(=O)N(CC(C)C)C1(O)Cc1ccccc1Cl (stereo not drawn),Activity,[1],34.6%
same,Activity,Streptococcus mutans [2],15.3%
same,Activity,Staphylococcus aureus [3],5%
same,Activity,Staphylococcus aureus [4],-1.25%
same,Activity,Staphylococcus aureus [5],-2.5%
same,Activity,[6],16.5%
same,Activity,Streptococcus mutans [7],30.7%
same,Activity,Staphylococcus aureus [8],-10.75%
same,Activity,Pseudomonas aeruginosa [9],-20.3%
same,Activity,Pseudomonas aeruginosa [10],-5.6%
same,Activity,Pseudomonas aeruginosa [11],-4.7%
same,Activity,[12],6%
same,Activity,[13],22.6%
same,Activity,[14],6.4%
same,Activity,[15],48.3%
same,Activity,Pseudomonas aeruginosa [16],-17.6%
same,Activity,[17],60.7%
same,Activity,Streptococcus mutans [18],13%
same,Activity,[19],24.8%
same,Activity,Staphylococcus aureus [20],-6.75%
same,Activity,Streptococcus mutans [21],7.3%
same,inhibition,[22],Dose-dependent effect
same,IC50,[22],> 87.5 µg/mL
same,Activity,Streptococcus mutans [23],28.7%
same,Activity,Staphylococcus aureus [24],2.25%
same,Activity,[25],2.8%
same,Activity,Streptococcus mutans [26],11.1%
same,Activity,Pseudomonas aeruginosa [27],-7.4%
same,Activity,Streptococcus mutans [28],39.8%
same,Activity,Streptococcus mutans [29],27.2%
same,inhibition,Pseudomonas aeruginosa [30],Dose-dependent effect
same,IC50,Pseudomonas aeruginosa [30],> 87.5 µg/mL
same,Activity,Pseudomonas aeruginosa [31],-17.5%
same,Activity,Staphylococcus aureus [32],0.5%
same,Activity,Staphylococcus aureus [33],-0.5%
same,Activity,Staphylococcus aureus [34],16.5%
same,Activity,Staphylococcus aureus [35],-3%
same,Activity,Pseudomonas aeruginosa [36],32.5%
same,Activity,Pseudomonas aeruginosa [37],-4.5%
same,Activity,Pseudomonas aeruginosa [38],-2.5%
same,Activity,[39],2.7%
same,Activity,Pseudomonas aeruginosa [40],17.1%
same,Activity,Streptococcus mutans [41],35.6%
same,Activity,Streptococcus mutans [42],12.6%
